Target: T1, adenine deaminase (ADE) (Escherichia coli, UniProt P31441)
T1 sequence (P31441 1-588): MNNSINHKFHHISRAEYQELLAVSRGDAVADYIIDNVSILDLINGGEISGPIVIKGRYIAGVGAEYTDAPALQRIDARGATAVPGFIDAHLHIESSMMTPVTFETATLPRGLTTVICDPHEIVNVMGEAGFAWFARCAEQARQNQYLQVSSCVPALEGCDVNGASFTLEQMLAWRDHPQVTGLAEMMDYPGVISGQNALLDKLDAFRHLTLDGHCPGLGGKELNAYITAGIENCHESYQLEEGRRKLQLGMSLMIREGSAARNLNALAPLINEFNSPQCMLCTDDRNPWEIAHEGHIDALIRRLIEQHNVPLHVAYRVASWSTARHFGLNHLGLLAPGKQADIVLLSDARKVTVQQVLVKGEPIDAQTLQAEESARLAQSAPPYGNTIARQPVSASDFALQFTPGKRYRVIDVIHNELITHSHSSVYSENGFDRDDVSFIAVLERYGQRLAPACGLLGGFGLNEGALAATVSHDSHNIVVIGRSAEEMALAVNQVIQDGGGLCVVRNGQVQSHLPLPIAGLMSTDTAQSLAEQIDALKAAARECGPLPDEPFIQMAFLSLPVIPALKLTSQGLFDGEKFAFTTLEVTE
Assay: GDH-coupled adenine deamination assay after […] h incubation with Mn/Mn-ADE
Type: biochemical

Clc1ncnc2[nH]cnc12 [6-chloropurine]
Ki: 130 ± 15 nM

Reference: PMC3059353 (Biochemistry, 2011)
